Calls of active or inactive are those of the source. No cut-off for these calls is given here.
How the values were obtained:
[1] = test system: MCF7; assay: Antiproliferative activity against human MCF7 cells measured after 72 hrs by MTT assay; assay type: functional, cell-based; settings: MCF7, 72 h
[2] = test system: SGC-7901; assay: Antiproliferative activity against human SGC-7901 cells measured after 72 hrs by MTT assay; assay type: functional, cell-based; settings: SGC-7901, 72 h
[3] = test system: A549; assay: Antiproliferative activity against human A549 cells measured after 72 hrs by MTT assay; assay type: functional, cell-based; settings: A549, 72 h
[4] = target: T1, Tubulin (Homo sapiens) (UniProt P68371+Q9H4B7+P0DPH7+P68366+Q13509+Q71U36+P04350+Q3ZCM7+P07437+P68363+Q9BQE3+Q6PEY2+Q13885+Q9BVA1+Q9BUF5); assay: Inhibition of tubulin polymerization (unknown origin) measured every 60 secs for 90 mins by microplate reader based analysis; assay type: protein-complex assay; settings: dose 1-8 µM
[5] = target: T1, Tubulin (Homo sapiens); assay: Disruption of microtubule network in human MCF7 cells incubated for 24 hrs by immunofluorescence staining based confocal microscopic analysis; assay type: cell-based
[6] = test system: MCF7; assay: Induction of cell cycle arrest in human MCF7 cells assessed as accumulation of cells at G0/G1 phase at 20 nM incubated for 24 hrs by PI staining based flow cytometry analysis (reference value: 69.67%); assay type: functional
[7] = test system: MCF7; assay: Induction of cell cycle arrest in human MCF7 cells assessed as accumulation of cells at G0/G1 phase at 40 nM incubated for 24 hrs by PI staining based flow cytometry analysis (reference value: 69.67%); assay type: functional
[8] = test system: MCF7; assay: Induction of cell cycle arrest in human MCF7 cells assessed as accumulation of cells at G0/G1 phase at 60 nM incubated for 24 hrs by PI staining based flow cytometry analysis (reference value: 69.67%); assay type: functional
[9] = test system: MCF7; assay: Induction of cell cycle arrest in human MCF7 cells assessed as accumulation of cells at S phase at 20 nM incubated for 24 hrs by PI staining based flow cytometry analysis (reference value: 14.58%); assay type: functional
[10] = test system: MCF7; assay: Induction of cell cycle arrest in human MCF7 cells assessed as accumulation of cells at S phase at 40 nM incubated for 24 hrs by PI staining based flow cytometry analysis (reference value: 14.58%); assay type: functional
[11] = test system: MCF7; assay: Induction of cell cycle arrest in human MCF7 cells assessed as accumulation of cells at S phase at 60 nM incubated for 24 hrs by PI staining based flow cytometry analysis (reference value: 14.58%); assay type: functional
[12] = test system: MCF7; assay: Induction of cell cycle arrest in human MCF7 cells assessed as accumulation of cells at G2/M phase at 20 nM incubated for 24 hrs by PI staining based flow cytometry analysis (reference value: 14.36%); assay type: functional
[13] = test system: MCF7; assay: Induction of cell cycle arrest in human MCF7 cells assessed as accumulation of cells at G2/M phase at 40 nM incubated for 24 hrs by PI staining based flow cytometry analysis (reference value: 14.36%); assay type: functional
[14] = test system: MCF7; assay: Induction of cell cycle arrest in human MCF7 cells assessed as accumulation of cells at G2/M phase at 60 nM incubated for 24 hrs by PI staining based flow cytometry analysis (reference value: 14.36%); assay type: functional
[15] = test system: MCF7; assay: Induction of apoptosis in human MCF7 cells assessed as viable cells at 20 nM incubated for 48 hrs by annexin V-FITC and PI staining based flow cytometry analysis (reference value: 92.4%); assay type: functional; settings: read-out: Activity
[16] = test system: MCF7; assay: Induction of apoptosis in human MCF7 cells assessed as viable cells at 40 nM incubated for 48 hrs by annexin V-FITC and PI staining based flow cytometry analysis (reference value: 92.4%); assay type: functional; settings: read-out: Activity
[17] = test system: MCF7; assay: Induction of apoptosis in human MCF7 cells assessed as viable cells at 60 nM incubated for 48 hrs by annexin V-FITC and PI staining based flow cytometry analysis (reference value: 92.4%); assay type: functional; settings: read-out: Activity
[18] = test system: MCF7; assay: Induction of apoptosis in human MCF7 cells assessed as early apoptotic cells at 20 nM incubated for 48 hrs by annexin V-FITC and PI staining based flow cytometry analysis (reference value: 2.17%); assay type: functional
[19] = test system: MCF7; assay: Induction of apoptosis in human MCF7 cells assessed as early apoptotic cells at 40 nM incubated for 48 hrs by annexin V-FITC and PI staining based flow cytometry analysis (reference value: 2.17%); assay type: functional
[20] = test system: MCF7; assay: Induction of apoptosis in human MCF7 cells assessed as early apoptotic cells at 60 nM incubated for 48 hrs by annexin V-FITC and PI staining based flow cytometry analysis (reference value: 2.17%); assay type: functional
[21] = test system: MCF7; assay: Induction of apoptosis in human MCF7 cells assessed as late apoptotic cells at 20 nM incubated for 48 hrs by annexin V-FITC and PI staining based flow cytometry analysis (reference value: 2.22%); assay type: functional
[22] = test system: MCF7; assay: Induction of apoptosis in human MCF7 cells assessed as late apoptotic cells at 40 nM incubated for 48 hrs by annexin V-FITC and PI staining based flow cytometry analysis (reference value: 2.22%); assay type: functional
[23] = test system: MCF7; assay: Induction of apoptosis in human MCF7 cells assessed as late apoptotic cells at 60 nM incubated for 48 hrs by annexin V-FITC and PI staining based flow cytometry analysis (reference value: 2.22%); assay type: functional
[24] = test system: MCF7; assay: Induction of apoptosis in human MCF7 cells assessed as necrotic cells at 20 nM incubated for 48 hrs by annexin V-FITC and PI staining based flow cytometry analysis (reference value: 2.25%); assay type: functional
[25] = test system: MCF7; assay: Induction of apoptosis in human MCF7 cells assessed as necrotic cells at 40 nM incubated for 48 hrs by annexin V-FITC and PI staining based flow cytometry analysis (reference value: 2.25%); assay type: functional
[26] = test system: MCF7; assay: Induction of apoptosis in human MCF7 cells assessed as necrotic cells at 60 nM incubated for 48 hrs by annexin V-FITC and PI staining based flow cytometry analysis (reference value: 2.25%); assay type: functional
[27] = test system: MCF7; assay: Induction of cell cycle arrest in human MCF7 cells incubated for 24 hrs by PI staining based flow cytometry analysis; assay type: functional; settings: dose 20-60 nM
[28] = test system: MCF7; assay: Induction of apoptosis in human MCF7 cells incubated for 48 hrs by annexin V-FITC and PI staining based flow cytometry analysis; assay type: functional, cell-based; settings: dose 20-60 nM
[29] = test system: MCF7; assay: Inhibition of cell migration in human MCF7 cells at 20 to 40 nM incubated for 24 hrs by wound healing assay; assay type: functional, cell-based; settings: dose 20-40 nM
[30] = test system: MCF7; assay: Inhibition of colony formation in human MCF7 cells measured after 24 hrs by crystal violet staining based analysis; assay type: functional, cell-based; settings: dose 20-40 nM
[31] = test system: MCF7; assay: Inhibition of colony formation in human MCF7 cells at 60 nM measured after 24 hrs by crystal violet staining based analysis relative to control; assay type: functional
[32] = test system: 4T1; assay: Antiproliferative activity against mouse 4T1 cells measured after 72 hrs by MTT assay; assay type: functional, cell-based; settings: 4T1, 72 h
[33] = test system: 4T1; assay: Antitumor activity against mouse 4T1 cells xenografted in BALB/c mouse model assessed as tumor growth inhibition rate at 5 mg/kg, iv measured every two days for 2 weeks relative to control; assay type: functional; settings: 4T1, 336 h, read-out: TGI
[34] = test system: 4T1; assay: Antitumor activity against mouse 4T1 cells xenografted in BALB/c mouse model assessed as tumor growth inhibition rate at 15 mg/kg, iv measured every two days for 2 weeks relative to control; assay type: functional; settings: 4T1, 336 h, read-out: TGI
[35] = Toxicity in BALB/c mouse assessed as effect on body weight loss at 5 to 15 mg/kg, iv measured after 2 weeks; assay type: organism-based; settings: in vivo, 336 h, dose 5-15 mg/kg
[36] = Toxicity in BALB/c mouse assessed as drug tolerance at 5 to 15 mg/kg, iv measured after 2 weeks; assay type: organism-based; settings: in vivo, 336 h, dose 5-15 mg/kg
[37] = Toxicity in BALB/c mouse assessed as effect on heart at 5 to 15 mg/kg, iv measured after 2 weeks by H and E staining based analysis; assay type: organism-based; settings: in vivo, 336 h, dose 5-15 mg/kg
[38] = Toxicity in BALB/c mouse assessed as effect on spleen at 5 to 15 mg/kg, iv measured after 2 weeks by H and E staining based analysis; assay type: organism-based; settings: in vivo, 336 h, dose 5-15 mg/kg
[39] = Toxicity in BALB/c mouse assessed as effect on lung at 5 to 15 mg/kg, iv measured after 2 weeks by H and E staining based analysis; assay type: organism-based; settings: in vivo, 336 h, dose 5-15 mg/kg
[40] = Toxicity in BALB/c mouse assessed as effect on kidney at 5 to 15 mg/kg, iv measured after 2 weeks by H and E staining based analysis; assay type: organism-based; settings: in vivo, 336 h, dose 5-15 mg/kg
[41] = Toxicity in BALB/c mouse assessed as effect on liver at 5 to 15 mg/kg, iv measured after 2 weeks by H and E staining based analysis; assay type: organism-based; settings: in vivo, 336 h, dose 5-15 mg/kg

In the case of `COc1ccc(-c2ccc3nnn(-c4cc(OC)c(OC)c(OC)c4)c3c2)cc1O`, the IC50 [1] is reported as 20 nM, the IC50 [2] is reported as 14 nM and the IC50 [3] is reported as 45 nM. The inhibition [4] was “Dose-Dependent Effect”, the Activity [5] was “Active” and the Activity [6] was 60.54%. The Activity [7] was 38.73%, the Activity [8] was 27.42% and the Activity [9] was 22.71%. It also gave an Activity [10] of 34.21%, an Activity [11] of 21.52% and an Activity [12] of 14.84%. For the same compound, the Activity [13] was 26.14%, the Activity [14] was 50.23% and the viability at 0.02 µM [15] was 83.6%. For the same compound, the viability at 0.04 µM [16] was 62.9%, the viability at 0.06 µM [17] was 60.9% and the Activity [18] was 5.47%. It also gave an Activity [19] of 24.9%, an Activity [20] of 26.4% and an Activity [21] of 8.16%. The Activity [22] was 10.1%, the Activity [23] was 10.6% and the Activity [24] was 2.8%. The Activity [25] was 2.07%, the Activity [26] was 2.05% and the Activity [27] was “Dose-Dependent Effect”. The Activity [28] was “Dose-Dependent Effect”, the inhibition [29] was “Active” and the inhibition [30] was “Dose-Dependent Effect”. For the same compound, the inhibition at 0.06 µM [31] was 100%, the IC50 [32] was 32 nM and the inhibition in vivo at 5 mg/kg [33] was 49.5%. The inhibition in vivo at 15 mg/kg [34] was 68.5%, the Activity [35] was “Non-Toxic” and the Activity [36] was “Non-Toxic”. For the same compound, the Activity [37] was “Non-Toxic”, the Activity [38] was “Non-Toxic” and the Activity [39] was “Non-Toxic”. The Activity [40] was “Non-Toxic” and the Activity [41] was “Non-Toxic”.

— ChEMBL document CHEMBL5500332, “Structure-based approaches for the design of 6-aryl-1-(3,4,5-trimethoxyphenyl)-1H-benzo[d][1,2,3]triazoles as tubulin polymerization inhibitors” (Eur J Med Chem, 2024)
